{"source": "patent US20060004026A1", "about": "“Compositions for ameliorating attention-deficient/hyperactivity disorder” (priority 2001, published 2006)", "key": {"[1]": {"test_system": "patients diagnosed attention-deficit hyperactivity disorder", "test": "administration to patients diagnosed attention-deficit hyperactivity disorder", "format": "in vivo, human", "description": "The “attention-deficit hyperactivity disorder,” as referred to herein, to which the composition of the present invention is applied is a symptom judged on the basis of a diagnostic method for ADHD, as defined in DSM-IV Seishin Shogai no Shindan•Tokei Manyuaru (Diagnosis and Statistic Manuals for DSM-IV Mental Disorders) (published by Igakushoin, 1996). Concretely, an individual with ADHD meets the following criteria.\nIn addition, the diagnosis is made under the conditions that some of these symptoms have caused problems before reaching 7-years old, and that any problems take place at present in two or more different locations (examples: school and home). Also, the judgment is made only in the case where serious disorders are recognized in social life, schoolwork and vocational work, and any of the symptoms are not caused by other diseases.\nThe exhibition of the action for mitigating or alleviating attention-deficit hyperactivity disorder by theanine can be evaluated by a clinical test in which theanine is administered to a patient who meets the above-mentioned [Criteria for Diagnosis], and any ameliorative effects on attention-deficit hyperactivity disorder are observed, as compared to that before the administration of theanine.\nFive patients who were diagnosed attention-deficit hyperactivity disorder by doctors were administered with a composition containing L-theanine. The composition was prepared so that L-theanine was mixed with crystalline cellulose, sucrose fatty acid ester, reducing maltose, silicon dioxide, lactose and aspartame so as to have the content of L-theanine of 20% by weight, and tableting the mixture to prepare a tablet."}, "mouse": {"test_system": "mouse", "test": "acute toxic test using a mouse", "format": "in vivo", "conditions": "oral administration at 5 g/kg", "description": "The theanine used in the present invention has high safety. […] Also, especially L-theanine is known as a main component of umami (tastiness) of the green tea, and is also used as a food additive giving umami, without the limitation of its added amount under the regulation for food hygiene. Moreover, contrary to the conventional drugs, since there is no side effect by theanine at all, the amelioration of attention-deficit hyperactivity disorder can be safely and effectively achieved according to the composition of the present invention."}}}
{"smiles": "CCNC(=O)CC[C@H](N)C(=O)O", "note": "[L-theanine]", "values": [{"measurement": "effect judged by the doctor in charge", "setting": "[1]; Patient 1, 50 mg/day over 8 weeks", "result": "effective"}, {"measurement": "ADHD symptoms after the termination of the administration", "setting": "[1]; Patient 1, 50 mg/day over 8 weeks, tablet with 20% by weight L-theanine", "result": "substantially disappeared"}, {"measurement": "ADHD symptoms after the termination of the administration", "setting": "[1]; Patient 2 (person one), 200 mg/day over 10 weeks", "result": "substantially disappeared"}, {"measurement": "effect judged by the doctor in charge", "setting": "[1]; Patient 2, 200 mg/day over 10 weeks", "result": "effective"}, {"measurement": "ADHD symptoms", "setting": "[1]; Patient 3, 100 mg/day together with Ritalin over 1 week", "result": "substantially disappeared"}, {"measurement": "behaviour at school on the day of administration", "setting": "[1]; Patient 4, 200 mg/day only once before school", "result": "could attend the classes without any problems"}, {"measurement": "state of symptoms in the following day (maintenance by a single dosage)", "setting": "[1]; Patient 4, 200 mg/day only once, following day", "result": "returned to the original state of symptoms"}, {"measurement": "ADHD symptoms after the termination of the administration", "setting": "[1]; Patient 5, 60 mg/day over 1 week", "result": "remarkably ameliorated"}]}
{"smiles": "COC(=O)C(c1ccccc1)C1CCCCN1", "note": "(stereo not drawn) [Ritalin, methylphenidate, reference compound]", "values": [{"measurement": "ADHD symptoms during the administration", "setting": "[1]; Patient 2, earlier treatment with Ritalin", "result": "stabilized"}, {"measurement": "side effects", "setting": "[1]; Patient 2, earlier treatment with Ritalin, administration was stopped", "result": "serious"}]}
{"smiles": "CCNC(=O)CC[C@H](N)C(=O)O", "note": "[theanine, γ-glutamylethylamide]", "values": [{"measurement": "abnormalities in the general states, weight and the like", "setting": "mouse", "result": "no abnormalities"}, {"measurement": "cases of death", "setting": "mouse", "result": "no cases of death"}]}
